Laboratory results published in ChEMBL document CHEMBL1641541, “Synthesis and antitrypanosomal evaluation of derivatives of N-benzyl-1,2-dihydroquinolin-6-ols: Effect of core substitutions and salt formation” (Bioorg Med Chem, 2011).
pIC50: −log10 of the molar value. Activity calls are given as the source filed them. The rule behind the calls is not given here.

How the values were obtained:
[1] = tested on: Trypanosoma brucei rhodesiense; assay: Antitrypanosomal activity against bloodstream form of Trypanosoma brucei rhodesiense STIB900 after 70 hrs by alamar blue assay; type: functional, organism-based; settings: STIB900, 70 h
L6 = assay: Cytotoxicity against rat L6 cells after 70 hrs by alamar blue assay; type: cell-based; settings: L6, 70 h
Trypanosoma brucei = assay: Antitrypanosomal activity against bloodstream form of Trypanosoma brucei s427 after 72 hrs by MTT assay; type: functional, organism-based; settings: s427, 72 h
[2] = tested on: Trypanosoma brucei rhodesiense; assay: Antitrypanosomal activity against bloodstream form of Trypanosoma brucei rhodesiense STIB900 infected in NMRI mouse assessed as suppression of parasitemia level in mouse tail blood at 10 mg/kg, ip qd for 4 consecutive days measured 5 days post infection; type: functional, organism-based; set-up: dose 10 mg/kg
[3] = tested on: Trypanosoma brucei rhodesiense; assay: Antitrypanosomal activity against bloodstream form of Trypanosoma brucei rhodesiense STIB900 infected in NMRI mouse assessed as suppression of parasitemia level in mouse tail blood at 5 mg/kg, ip qd for 4 consecutive days measured 5 days post infection; type: functional, organism-based; set-up: dose 5 mg/kg
[4] = tested on: Trypanosoma brucei rhodesiense; assay: Antitrypanosomal activity against bloodstream form of Trypanosoma brucei rhodesiense STIB900 infected in NMRI mouse assessed as suppression of parasitemia level in mouse tail blood at 50 mg/kg, ip qd for 4 consecutive days measured 5 days post infection; type: functional, organism-based; set-up: dose 50 mg/kg
[5] = Chemical stability of the compound in 100 mM phosphate buffer at pH 7.4; type: physicochemical
[6] = tested on: Trypanosoma brucei rhodesiense; assay: Antitrypanosomal activity against bloodstream form of Trypanosoma brucei rhodesiense STIB900 infected in NMRI mouse assessed as day of parasitemia relapse at 50 mg/kg, ip qd for 4 consecutive days; type: functional

Row | pIC50 [1] | pIC50 (Trypanosoma brucei) | Structure (SMILES) | pIC50 (L6) | further results
1 | 8.24 |  | N=C(N)c1ccc(/N=N/Nc2ccc(C(=N)N)cc2)cc1 [DIMINAZENE] | 5.30 | Activity [2]: Active
2 | 7.14 | 6.31 | CC(=O)Oc1c(Cl)cc2c(c1Cl)C(C)=CC(C)(C)N2Cc1ccccc1 | 3.96 | 
3 | 7.85 | 7.35 | COc1ccccc1CN1c2ccc(O)cc2C(C)=CC1(C)C.Cl | 4.92 | Activity [4]: Active; Stability [5]: Unstable
4 | 7.29 | 7.17 | CC1=CC(C)(C)N(Cc2ccc(F)c(F)c2)c2ccc(O)cc21 | 4.96 | 
5 | 7.89 | 7.42 | CC1=CC(C)(C)N(Cc2ccccc2)c2ccc(O)cc21.Cl | 4.96 | Activity [4]: Active; Stability [5]: Unstable
6 | 7.92 | 7.24 | CC(=O)Oc1ccc2c(c1)C(C)=CC(C)(C)N2Cc1ccccc1 | 4.74 | Activity ([6]; route intraperitoneal): 12.75 days
7 | 6.55 | 6.01 | CC(=O)Oc1ccc2c(c1)C(C)=CC(C)(C)N2Cc1ccc(C(C)C)cc1 | 5.00 | 
8 | 7.96 | 7.39 | COc1ccccc1CN1c2ccc(OC(C)=O)cc2C(C)=CC1(C)C | 4.77 | Activity [4]: Active
9 |  | 6.96 | Cc1ccc(C(=O)Nc2ccc(S(=O)(=O)O)c3cc(S(=O)(=O)O)cc(S(=O)(=O)O)c23)cc1NC(=O)c1cccc(NC(=O)Nc2cccc(C(=O)Nc3cc(C(=O)Nc4ccc(S(=O)(=O)O)c5cc(S(=O)(=O)O)cc(S(=O)(=O)O)c45)ccc3C)c2)c1 [SURAMIN] |  | 
10 | 3.85 |  | CCOc1ccc2c(c1)C(C)=CC(C)(C)N2Cc1ccc(F)c(F)c1 | 4.05 | Activity [4]: inactive; Activity [6]: inactive

Second part, the compound before the results:

Row | Structure (SMILES) | pIC50 [1] | pIC50 (Trypanosoma brucei) | pIC50 (L6) | further results
11 | CC(=O)Oc1ccc2c(c1)C(C)=CC(C)(C)N2Cc1ccc(F)c(F)c1 | 7.60 | 7.10 | 4.77 | 
12 | CC(=O)Oc1cc2c(cc1-c1ccc(C(F)(F)F)cc1)N(Cc1ccccc1)C(C)(C)C=C2C | 5.05 | 4.82 | < 3.72 | 
13 | N=C(N)c1ccc(OCCCCCOc2ccc(C(=N)N)cc2)cc1 [PENTAMIDINE] | 8.89 | 7.92 | 4.60 | Activity [3]: Active
14 | CC(=O)Oc1ccc2c(c1)C(c1ccccc1)=CC(C)(C)N2Cc1ccccc1 | 5.35 | 4.70 | 4.31 | 
15 | CC(=O)Oc1cc2c(cc1C)N(Cc1ccccc1)C(C)(C)C=C2C |  | 7.51 |  | 
16 | CC(=O)Oc1cc(C)c2c(c1)C(C)=CC(C)(C)N2Cc1ccccc1 | 4.37 | 5.04 | 4.32 | 
17 | CCOc1ccc2c(c1)C(C)=CC(C)(C)N2Cc1ccccc1 | 4.39 |  | 4.01 | Activity [6]: inactive
18 | CC(=O)Oc1cc2c(cc1Cl)N(Cc1ccccc1)C(C)(C)C=C2C | 7.38 | 6.66 | 4.66 | 
19 | COc1cc(OC(C)=O)cc2c1N(Cc1ccccc1)C(C)(C)C=C2C |  | < 4.00 |  | 
